Results: the NIST ThermoML archive (doi:10.1021/je800110r)

Settings: 283.15 K, Liquid, Vibrating tube method

CCCCCCCCCC [decane]
Settings	mass density [kg/m3]
7092 kPa	742.4
7106 kPa	742.5
7121 kPa	742.6
7134 kPa	742.5
7192 kPa	742.7
7205 kPa	742.5
7258 kPa	742.6
7275 kPa	742.6
7296 kPa	742.6
7315 kPa	742.8
7327 kPa	742.7
7342 kPa	742.7
7357 kPa	742.7
7374 kPa	742.7
7387 kPa	742.8
7404 kPa	742.6
7420 kPa	742.9
7435 kPa	742.8
7452 kPa	742.7
7466 kPa	742.7
7484 kPa	742.8
7505 kPa	742.8
7518 kPa	742.8
7534 kPa	742.8
7548 kPa	742.7
7567 kPa	742.9
7581 kPa	742.8
7595 kPa	742.8
7611 kPa	742.9
7628 kPa	742.9
7643 kPa	742.9
7658 kPa	742.9
7697 kPa	743.1
7710 kPa	743
7722 kPa	743
7735 kPa	743
7783 kPa	743
7795 kPa	743
7814 kPa	743.1
7830 kPa	742.9
7845 kPa	743.1
7855 kPa	743
7867 kPa	743.1
7879 kPa	743.1
7891 kPa	743.1
7903 kPa	743.1
7915 kPa	743
7926 kPa	743.1
7942 kPa	743.2
7957 kPa	743.2
7975 kPa	743.1
7991 kPa	743
8004 kPa	743.1
8018 kPa	743.1
8033 kPa	743.2
8045 kPa	743.2
8060 kPa	743.2
8078 kPa	743.1
8091 kPa	743.2
8112 kPa	743.4
8127 kPa	743.2
8143 kPa	743.3
8159 kPa	743.2
8171 kPa	743.4
8318 kPa	743.4
8332 kPa	743.4
8347 kPa	743.4
8361 kPa	743.3
8376 kPa	743.4
8392 kPa	743.5
8412 kPa	743.4
8430 kPa	743.4
8446 kPa	743.4
8462 kPa	743.4
8478 kPa	743.5
8497 kPa	743.6
8513 kPa	743.5
8529 kPa	743.6
8546 kPa	743.5
8563 kPa	743.6
8580 kPa	743.5
8596 kPa	743.5
8612 kPa	743.6
8631 kPa	743.7
8648 kPa	743.7
8660 kPa	743.6
8677 kPa	743.6
8695 kPa	743.6
8706 kPa	743.7
8720 kPa	743.7
8735 kPa	743.8
8747 kPa	743.7
8762 kPa	743.7
8774 kPa	743.8
8790 kPa	743.7
8804 kPa	743.7
8818 kPa	743.6
8832 kPa	743.9
8862 kPa	743.6
8890 kPa	743.7
9095 kPa	743.9
9109 kPa	743.9
9124 kPa	744
9134 kPa	743.9
9147 kPa	743.8
9162 kPa	744
9174 kPa	744
9189 kPa	743.9
9203 kPa	744.1
9220 kPa	744
9233 kPa	744.1
9250 kPa	744.1
9261 kPa	744
9274 kPa	744.1
9287 kPa	744
9304 kPa	744
9315 kPa	744
9326 kPa	744.1
9337 kPa	744.2
9354 kPa	744.1
9373 kPa	744.2
9384 kPa	744.1
9396 kPa	744.1
9406 kPa	744.2
9419 kPa	744.2
9429 kPa	744.2
9442 kPa	744
9452 kPa	744.2
9464 kPa	744.2
9476 kPa	744.2
9488 kPa	744.1
9499 kPa	744.1
9517 kPa	744.3
9532 kPa	744.2
9543 kPa	744.3
9556 kPa	744.2
9564 kPa	744.3
9577 kPa	744.1
9588 kPa	744.2
9597 kPa	744.3
9605 kPa	744.2
9614 kPa	744.3
9623 kPa	744.3
9633 kPa	744.3
9642 kPa	744.3
9651 kPa	744.3
9663 kPa	744.4
9675 kPa	744.4
9685 kPa	744.4
9695 kPa	744.3
9704 kPa	744.3
9726 kPa	744.3
9736 kPa	744.5
9746 kPa	744.3
9758 kPa	744.3
9766 kPa	744.3
9777 kPa	744.4
9784 kPa	744.2
9795 kPa	744.3
9803 kPa	744.3
9814 kPa	744.5
9822 kPa	744.5
9835 kPa	744.4
9845 kPa	744.4
9855 kPa	744.5
9870 kPa	744.4
9880 kPa	744.4
9892 kPa	744.5
9905 kPa	744.5
9914 kPa	744.5
9923 kPa	744.5
9931 kPa	744.5
9940 kPa	744.5
9949 kPa	744.5
9961 kPa	744.5
9973 kPa	744.5
9982 kPa	744.6
9992 kPa	744.5
10001 kPa	744.6
10013 kPa	744.5
10022 kPa	744.5
10032 kPa	744.6
10042 kPa	744.5
10056 kPa	744.6
10066 kPa	744.7
10076 kPa	744.6
10086 kPa	744.5
10097 kPa	744.5
10108 kPa	744.5
10119 kPa	744.6
10131 kPa	744.6
10144 kPa	744.6
10160 kPa	744.6
10170 kPa	744.6
10185 kPa	744.6
10195 kPa	744.6
10205 kPa	744.6
10215 kPa	744.7
10224 kPa	744.7
10234 kPa	744.6
10242 kPa	744.7
10252 kPa	744.7
10263 kPa	744.8
10274 kPa	744.8
10285 kPa	744.6
10295 kPa	744.7
10305 kPa	744.7
10317 kPa	744.7
10331 kPa	744.7
10342 kPa	744.8
10353 kPa	744.7
10374 kPa	744.8
10384 kPa	744.8
10397 kPa	744.8
10407 kPa	744.8
10445 kPa	744.8
10457 kPa	745
10500 kPa	744.9
10514 kPa	744.9
10540 kPa	744.9
10683 kPa	745
10698 kPa	745.1
10709 kPa	745
10720 kPa	745.1
10735 kPa	745.1
10744 kPa	745
10761 kPa	745
10780 kPa	745
10791 kPa	745.2
10802 kPa	745.1
10816 kPa	745.1
10830 kPa	745
10841 kPa	745.1
10852 kPa	745.2
10867 kPa	745.1
10880 kPa	745.2
10894 kPa	745.2
10907 kPa	745.1
10924 kPa	745.1
10938 kPa	745.2
10953 kPa	745.3
10965 kPa	745.2
10983 kPa	745.2
11010 kPa	745.1
11026 kPa	745.2
11036 kPa	745.2
11049 kPa	745.3
11068 kPa	745.2
11079 kPa	745.3
11097 kPa	745.2
11109 kPa	745.3
11124 kPa	745.3
11134 kPa	745.3
11149 kPa	745.3
11159 kPa	745.2
11173 kPa	745.3
11183 kPa	745.5
11197 kPa	745.3
11207 kPa	745.3
11227 kPa	745.3
11242 kPa	745.4
11258 kPa	745.5
11268 kPa	745.4
11284 kPa	745.4
11299 kPa	745.5
11309 kPa	745.4
11322 kPa	745.4
11339 kPa	745.5
11351 kPa	745.5
11366 kPa	745.5
11378 kPa	745.4
11399 kPa	745.5
11416 kPa	745.6
